# In PubChem BioAssay AID328 (DTP/NCI, 2004):
# Several values for one entry are separate records, joined by “and”; a condition that tells them apart may be missing. Identical values can stand only once. Toxic doses and inconclusive results are not listed.
# Tested on: BDF1 mice, P388 leukemia ip, median survival T/C
# Experiment: NCI In Vivo Anticancer Drug Screen. Data for tumor model P388 Leukemia (intraperitoneal) in B6D2F1 (BDF1) mice
# Details: endpoint: median survival time, higher = longer survival
# Procedure, shortened: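 Reported as T/C, where T is the survival measurement in dosed animals and C the same measurement in vehicle controls.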
# [1] = dose: 50.0 mg/kg/injection, schedule: Q04DX003 (ip), vehicle: saline with Tween-80
# [2] = dose: 100.0 mg/kg/injection, schedule: Q04DX003 (ip), vehicle: saline with Tween-80
# [3] = dose: 200.0 mg/kg/injection, schedule: Q04DX003 (ip), vehicle: saline with Tween-80
# [4] = dose: 400.0 mg/kg/injection, schedule: Q04DX003 (ip), vehicle: saline with Tween-80
# [5] = dose: 50.0 mg/kg/injection, schedule: Q04DX003 (ip), vehicle: Klucel (hydroxypropylcellulose) (HPC)
compound,measurement,setting,value
NC(=O)NC1OC(COC(=O)c2ccccc2)C(OC(=O)c2ccccc2)C1OC(=O)c1ccccc1 (centres undefined),T/C,[1],107 % of control
same,T/C,[2],90 % of control and 96 % of control
same,T/C,[3],93 % of control
same,T/C,[4],87 % of control and 90 % of control
COc1cccc2c1C(=O)c1c(O)c3c(c(O)c1C2=O)C[C@@](O)(C(C)=O)C[C@@H]3OC1CC(NC(=O)c2ccncc2)C(O)C(C)O1 (some centres undefined),T/C,"dose: 3.13 mg/kg/injection, schedule: Q01DX009 (ip), vehicle: water",150 % of control
same,T/C,"dose: 6.25 mg/kg/injection, schedule: Q01DX009 (ip), vehicle: water",154 % of control
same,T/C,"dose: 12.5 mg/kg/injection, schedule: Q01DX009 (ip), vehicle: water",159 % of control
C=C1C(=O)O[C@H]2C1[C@H](OC(=O)/C(C)=C\COC(C)=O)C[C@]1(CO1)[C@@H]1[C@H](O)[C@H]3O[C@@]3(C)[C@@H]12 (some centres undefined),T/C,"dose: 3.12 mg/kg/injection, schedule: Q01DX009 (ip), vehicle: other",103 % of control
same,T/C,"dose: 6.25 mg/kg/injection, schedule: Q01DX009 (ip), vehicle: other",96 % of control and 120 % of control
same,T/C,"dose: 12.5 mg/kg/injection, schedule: Q01DX009 (ip), vehicle: other",101 % of control
same,T/C,"dose: 50.0 mg/kg/injection, schedule: Q01DX009 (ip), vehicle: other",173 % of control
CCCCCCOC(=O)C(O)c1ccccc1 (centres undefined),T/C,[1],109 % of control
same,T/C,[2],95 % of control
same,T/C,[3],95 % of control
same,T/C,[4],100 % of control
COc1ccccc1NC(=O)Nc1ccc(C(=O)OCC(C)C)cc1,T/C,[1],108 % of control
same,T/C,[2],91 % of control
same,T/C,[3],100 % of control
Cc1cc(N)no1,T/C,"dose: 100.0 mg/kg/injection, schedule: Q01DX009 (ip), vehicle: saline",92 % of control
same,T/C,"dose: 100.0 mg/kg/injection, schedule: Q04DX003 (ip), vehicle: saline",104 % of control
same,T/C,"dose: 200.0 mg/kg/injection, schedule: Q01DX009 (ip), vehicle: saline",96 % of control
same,T/C,"dose: 200.0 mg/kg/injection, schedule: Q04DX003 (ip), vehicle: saline",95 % of control
same,T/C,"dose: 400.0 mg/kg/injection, schedule: Q01DX009 (ip), vehicle: saline",92 % of control
same,T/C,"dose: 400.0 mg/kg/injection, schedule: Q04DX003 (ip), vehicle: saline",100 % of control
CCn1c2ccccc2c2cc(NC(=O)N(CCCl)N=O)ccc21,T/C,"dose: 100.0 mg/kg/injection, schedule: Q01DX009 (ip), vehicle: saline sonified",170 % of control
same,T/C,"dose: 200.0 mg/kg/injection, schedule: Q01DX009 (ip), vehicle: saline sonified",150 % of control
same,T/C,"dose: 400.0 mg/kg/injection, schedule: Q01DX009 (ip), vehicle: saline sonified",185 % of control
Cc1ccc(C2(C#N)CCCC2)cc1,T/C,"dose: 100.0 mg/kg/injection, schedule: Q01DX009 (ip), vehicle: saline with Tween-80",104 % of control
same,T/C,"dose: 200.0 mg/kg/injection, schedule: Q01DX009 (ip), vehicle: saline with Tween-80",113 % of control
CCCC1=NNc2n[nH]c(=S)n2N1,T/C,"dose: 12.5 mg/kg/injection, schedule: Q04DX003 (ip), vehicle: Klucel (hydroxypropylcellulose) (HPC)",100 % of control
same,T/C,"dose: 25.0 mg/kg/injection, schedule: Q04DX003 (ip), vehicle: Klucel (hydroxypropylcellulose) (HPC)",91 % of control
same,T/C,[5],91 % of control
CCC(C)Nc1ccccc1 (centres undefined),T/C,[5],95 % of control
same,T/C,"dose: 100.0 mg/kg/injection, schedule: Q04DX003 (ip), vehicle: Klucel (hydroxypropylcellulose) (HPC)",100 % of control
same,T/C,"dose: 200.0 mg/kg/injection, schedule: Q04DX003 (ip), vehicle: Klucel (hydroxypropylcellulose) (HPC)",108 % of control
O=C(Nc1cccc(C(F)(F)F)c1)Nc1nccs1,T/C,"dose: 25.0 mg/kg/injection, schedule: Q01DX009 (ip), vehicle: Klucel (hydroxypropylcellulose) (HPC)",121 % of control
same,T/C,"dose: 50.0 mg/kg/injection, schedule: Q01DX009 (ip), vehicle: Klucel (hydroxypropylcellulose) (HPC)",111 % of control
same,T/C,"dose: 100.0 mg/kg/injection, schedule: Q01DX009 (ip), vehicle: Klucel (hydroxypropylcellulose) (HPC)",102 % of control
same,T/C,"dose: 200.0 mg/kg/injection, schedule: Q01DX009 (ip), vehicle: Klucel (hydroxypropylcellulose) (HPC)",104 % of control
